Patent publication US20240099299A1, “ANTIMICROBIAL COMPOSITIONS AND METHODS FOR THEIR PREPARATION AND USE IN TREATING PLANT DISEASES” (priority 2021, published 2024)
Counter-ions that a name gives are not always drawn.

How the values were obtained:
[1] = Uptake (injection time) of OTC solutions injected into rootstock of Valencia citrus trees; type: in vivo; conditions: for Absorption of solution by trees: overall conclusions from functional testing, nS-nPG-OTC: after the first 50 mL
Procedure: The test article solutions (11,000 ppm) were prepared as above and were fluidly pressurized into latex injection devices (FLexInect™, TJ Biotech LLC, Buffalo, SD) and then were injected into rootstock of uniform, commercially grown, Valencia citrus trees. The injection devices were monitored to measure uptake rates of the solutions.
Table 2 presents the results of Trial 1, which used trees (n=10) having trunk diameters between 2.125″ and 3.00″.
Table 3 presents the results of Trial 2, which used trees (n=10) having trunk diameters between 3.00″ and 4.25″. 100 mL of the test solutions were injected with the ambient temperature between 80° F. and 90° F.
Table 4 presents the results of Trial 3, which used trees (n=30) having trunk diameters between 3.00″ and 4.25″. Up to 100 mL of the test solutions were injected with the ambient temperature <70° F., at which temperatures transpiration in the vascular system is reduced. In this trial, the injections were stopped at 120 minutes regardless of if injections were complete.

[2] = test system: Valencia orange tree; assay: Study 1: comparison of injection and spray applications, tree vigor rating; type: in vivo; conditions: Study 1 conclusion
Procedure: Tree Vigor Ratings: 1=Lowest Vigor; 5=Highest Vigor. LSD stands for least significant difference and C.V. stands for Coefficient of Variance.
For Treatment 1, a 5,500 ppm solution of PG-OTC was prepared using distilled water. This solution then was acidified to pH 2 using hydrochloric acid. […] For Treatment 2, 2.5 g of PG-OTC was dissolved in 2 gallons of water. The resultant solution was sprayed onto the foliage of the trees at a rate of 1 quart (0.3125 g OTC·HCl) per tree (n=9). Vigor ratings were performed 60 days after application of treatments.

[3] = OTC residues in fruit after injection; type: in vivo; conditions: when using PG-OTC solutions
[4] = Visual monitoring of homogeneity of 11,000 ppm OTC test solutions in pH 2 water; type: physicochemical; conditions: 11,000 ppm in pH 2 water, 10× magnification, immediately upon preparation at 75° F.; HCl
Procedure: Next, OTC solutions were prepared by first reducing the pH of water to pH 2 using hydrochloric acid. 11.0 g of PG-OTC (>95%) and non-sterile, nS-nPG-OTC (putatively 95%) each were dissolved into 1.0 L of the pH 2 water to generate 11,000 ppm test solutions, which then were monitored visually at 10× magnification. […] To elucidate the nonhomogeneous nature of the nS-nPG-OTC solutions, visualization was performed at 60× magnification, as is shown in FIG. 8 and wherein an abundance of actively growing needle-like crystals having lengths of approximately 10-250 μm are visible. These needle-like crystals likely comprise OTC and/or OTC and one or more impurities.

| Compound | Time (Minutes) of injection/uptake ([1]; Trial 1: 50 mL of 11,000 ppm solution, trunk diameter 2.125-3.00 in, 80-90° F., n=10) [a Minutes] | Time (Minutes) of injection/uptake ([1]; Trial 2: 100 mL of 11,000 ppm solution, trunk diameter 3.00-4.25 in, 80-90° F., n=10) [a Minutes] | Time (Minutes) of injection/uptake ([1]; Trial 3: up to 100 mL of 11,000 ppm solution, trunk diameter 3.00-4.25 in, <70° F., stopped at 120 minutes, n=30) [a Minutes] | Absorption of solution by trees [1] | Time (Minutes) of injection/uptake ([1]; Trial 1: 50 mL of 11,000 ppm solution, trunk diameter 2.125-3.00 in, 80-90° F., n=10, HCl) [b Minutes] | Time (Minutes) of injection/uptake ([1]; Trial 2: 100 mL of 11,000 ppm solution, trunk diameter 3.00-4.25 in, 80-90° F., n=10, HCl) [b Minutes] | Time (Minutes) of injection/uptake ([1]; Trial 3: up to 100 mL of 11,000 ppm solution, trunk diameter 3.00-4.25 in, <70° F., stopped at 120 minutes, n=30, HCl) [b Minutes] | Absorption of solution by trees ([1]; HCl) | Effectiveness of trunk injection versus application of unacidified solution to foliage by spraying [2] | Residues in the fruit (within tolerance) [3] [PPB] | Homogeneity of solution [4] |
| --- | --- | --- | --- | --- | --- | --- | --- | --- | --- | --- | --- |
| CN(C)[C@@H]1C(O)=C(C(N)=O)C(=O)[C@@]2(O)C(O)=C3C(=O)c4c(O)cccc4[C@@](C)(O)[C@H]3[C@H](O)[C@@H]12 [nS-nPG-OTC, Oxytetracycline] | 15.3 | 134.7 | 117.33 | marked decrease in absorption rate |  |  |  |  |  |  |  |
| CN(C)[C@@H]1C(O)=C(C(N)=O)C(=O)[C@@]2(O)C(O)=C3C(=O)c4c(O)cccc4[C@@](C)(O)[C@H]3[C@H](O)[C@@H]12 [PG-OTC, Oxytetracycline HCl] |  |  |  |  | 8.4 | 18.2 | 81.1 | readily absorbed | more effective | ≤ 10 | essentially homogeneous |
